Like-named read-outs stand apart in the source and are kept apart here.
System: peripheral blood mononuclear cell (PBMC)
Experiment: Peripheral blood mononuclear cell assay
Conditions: compounds 1h, washed, 15 hour incubation, average of one to four donors
[1] = read-out: PBMC EC50 IFN-α, interferon-alpha level in medium
[2] = read-out: PBMC EC50 IFN-γ, interferon-gamma level in medium
[3] = read-out: PBMC EC50 TNF-α, tumor necrosis factor-alpha level in medium

Row | SMILES | EC50 [1] [µM] | EC50 [2] [µM] | EC50 [3] [µM]
1 | CCCCCCCCCCCCCC(=O)OCSP1(=O)OC[C@H]2O[C@@H](n3cnc4c(N)ncnc43)[C@H](F)[C@@H]2OCP(=O)(O)OC[C@H]2O[C@@H](n3cnc4c(=O)[nH]cnc43)[C@H](O1)[C@@H]2F (single isomer, unassigned) [Compound 68a] | 0.9 | 1 | 0.6
2 | CCCCCCCCCCCCOC(=O)OCSP1(=O)OC[C@H]2O[C@@H](n3cnc4c(N)ncnc43)[C@H](F)[C@@H]2OCP(=O)(O)OC[C@H]2O[C@@H](n3cnc4c(=O)[nH]cnc43)[C@H](O1)[C@@H]2F (stereo partly drawn) [Compound 58b, {[(1S,6R,8R,9R,10R,16R,18R,19R)-8-(6-amino-9H-purin-9-yl)-9,19-difluoro-13-hydroxy-3,13-dioxo-18-(6-oxo-6,9-dihydro-1H-purin-9-yl)-2,4,7,11,14,17-hexaoxa-3λ^5,13λ^5-diphosphatricyclo[14.2.1.0^6,10]nonadecan-3-yl]sulfanyl}methyl dodecyl carbonate] | 1.2 | 1.9 | 1.3
3 | CCCCCCCCCCCCCCCC(=O)OCSP1(=O)OC[C@H]2O[C@@H](n3cnc4c(N)ncnc43)[C@H](F)[C@@H]2OCP(=O)(O)OC[C@H]2O[C@@H](n3cnc4c(=O)[nH]cnc43)[C@H](O1)[C@@H]2F (single isomer, unassigned) [Compound 64a] | 0.6 | 2.6 | 0.4
4 | CCCCCCCCCCCCCCCCCCOC(=O)OCSP1(=O)OC[C@H]2O[C@@H](n3cnc4c(N)ncnc43)[C@H](F)[C@@H]2OCP(=O)(O)OC[C@H]2O[C@@H](n3cnc4c(=O)[nH]cnc43)[C@H](O1)[C@@H]2F (stereo partly drawn) [Compound 74b, {[(1S,6R,8R,9R,10R,16R,18R,19R)-8-(6-amino-9H-purin-9-yl)-9,19-difluoro-13-hydroxy-3,13-dioxo-18-(6-oxo-6,9-dihydro-1H-purin-9-yl)-2,4,7,11,14,17-hexaoxa-3λ^5,13λ^5-diphosphatricyclo[14.2.1.0^6,10]nonadecan-3-yl]sulfanyl}methyl octadecyl carbonate] | 2.2 | 2.4 | 3
5 | CCCCCCCCCCCCCCOC(=O)OCSP1(=O)OC[C@H]2O[C@@H](n3cnc4c(N)ncnc43)[C@H](F)[C@@H]2OCP(=O)(O)OC[C@H]2O[C@@H](n3cnc4c(=O)[nH]cnc43)[C@H](O1)[C@@H]2F (stereo partly drawn) [Compound 72b, {[(1S,6R,8R,9R,10R,16R,18R,19R)-8-(6-amino-9H-purin-9-yl)-9,19-difluoro-13-hydroxy-3,13-dioxo-18-(6-oxo-6,9-dihydro-1H-purin-9-yl)-2,4,7,11,14,17-hexaoxa-3λ^5,13λ^5-diphosphatricyclo[14.2.1.0^6,10]nonadecan-3-yl]sulfanyl}methyl tetradecyl carbonate] | 1.7 | 0.8 | 1.6
6 | CC(C)(C)C(=O)OCOc1ccc(CSP2(=O)OC[C@H]3O[C@@H](n4cnc5c(N)ncnc54)[C@H](F)[C@@H]3OCP(=O)(O)OC[C@H]3O[C@@H](n4cnc5c(=O)[nH]c(N)nc54)[C@H](O2)[C@@H]3F)cc1 (single isomer, unassigned) [Compound 39b] | 0.9 | 1.4 | 1
7 | Nc1nc2c(ncn2[C@@H]2O[C@@H]3COP(=O)(O)O[C@H]4[C@@H](O)[C@H](n5cnc6c(N)ncnc65)O[C@@H]4COP(=O)(O)O[C@@H]2[C@@H]3O)c(=O)[nH]1 [2′3′-cGAMP, c[G(2′,5′)pA(3′,5′)p], reference compound] | 300 | 164 | 210
8 | CCCCCCCCCCCCOC(=O)OCSP1(=O)OC[C@H]2O[C@@H](n3cnc4c(N)ncnc43)[C@H](F)[C@@H]2OCP(=O)(O)OC[C@H]2O[C@@H](n3cnc4c(=O)[nH]c(N)nc43)[C@H](O1)[C@@H]2F (stereo partly drawn) [Compound 59b, {[(1S,6R,8R,9R,10R,16R,18R,19R)-18-(2-amino-6-oxo-6,9-dihydro-1H-purin-9-yl)-8-(6-amino-9H-purin-9-yl)-9,19-difluoro-13-hydroxy-3,13-dioxo-2,4,7,11,14,17-hexaoxa-3λ^5,13λ^5-diphosphatricyclo[14.2.1.0^6,10]nonadecan-3-yl]sulfanyl}methyl dodecyl carbonate] | 1.8 | 2.2 | 2.1
9 | CCCCCCCC(=O)OCSP1(=O)OC[C@H]2O[C@@H](n3cnc4c(N)ncnc43)[C@H](F)[C@@H]2OCP(=O)(O)OC[C@H]2O[C@@H](n3cnc4c(=O)[nH]cnc43)[C@H](O1)[C@@H]2F (stereo partly drawn) [Compound 63b, {[(1S,6R,8R,9R,10R,16R,18R,19R)-8-(6-amino-9H-purin-9-yl)-9,19-difluoro-13-hydroxy-3,13-dioxo-18-(6-oxo-6,9-dihydro-1H-purin-9-yl)-2,4,7,11,14,17-hexaoxa-3λ^5,13λ^5-diphosphatricyclo[14.2.1.0^6,10]nonadecan-3-yl]sulfanyl}methyl octanoate] | 9 | 3.7 | 8
10 | CCCCCCCCCCCC(=O)OCSP1(=O)OC[C@H]2O[C@@H](n3cnc4c(N)ncnc43)[C@H](F)[C@@H]2OCP(=O)(O)OC[C@H]2O[C@@H](n3cnc4c(=O)[nH]cnc43)[C@H](O1)[C@@H]2F (single isomer, unassigned) [Compound 56a] | 1.6 | 2.2 | 1.8
11 | CCCCCCCCCCCC(=O)Oc1ccc(CSP2(=O)OC[C@H]3O[C@@H](n4cnc5c(N)ncnc54)[C@H](F)[C@@H]3OCP(=O)(O)OC[C@H]3O[C@@H](n4cnc5c(=O)[nH]c(N)nc54)[C@H](O2)[C@@H]3F)cc1 (single isomer, unassigned) [Compound 38a] | 1.4 | 2.6 | 1.4
12 | CCCCCCCCCCCC(=O)OCSP1(=O)OC[C@H]2O[C@@H](n3cnc4c(N)ncnc43)[C@H](F)[C@@H]2OCP(=O)(O)OC[C@H]2O[C@@H](n3cnc4c(=O)[nH]cnc43)[C@H](O1)[C@@H]2F (single isomer, unassigned) [Compound 56b] | 3 | 1.3 | 2
13 | CCCCCCCCCC(=O)Oc1ccc(CSP2(=O)OC[C@H]3O[C@@H](n4cnc5c(N)ncnc54)[C@H](F)[C@@H]3OCP(=O)(O)OC[C@H]3O[C@@H](n4cnc5c(=O)[nH]c(N)nc54)[C@H](O2)[C@@H]3F)cc1 (single isomer, unassigned) [Compound 35a] | 2.6 | 3.2 | 1.9
14 | CCCCCCCCCCCC(=O)OCSP1(=O)OC[C@H]2O[C@@H](n3cnc4c(N)ncnc43)[C@H](F)[C@@H]2OCP(=O)(O)OC[C@H]2O[C@@H](n3cnc4c(=O)[nH]c(N)nc43)[C@H](O1)[C@@H]2F (single isomer, unassigned) [Compound 57b] | 1.7 | 2.5 | 1.6
15 | CCCCCCCCCCCCCCCC(=O)OCSP1(=O)OC[C@H]2O[C@@H](n3cnc4c(N)ncnc43)[C@H](F)[C@@H]2OCP(=O)(O)OC[C@H]2O[C@@H](n3cnc4c(=O)[nH]cnc43)[C@H](O1)[C@@H]2F (single isomer, unassigned) [Compound 64b] | 1.4 | 0.8 | 2

— patent US12318403B2, “2′3′-cyclic dinucleotides and prodrugs thereof” (INSTITUTE OF ORGANIC CHEMISTRY AND BIOCHEMISTRY ASCR, V.V.I., priority 2019, dated 2025)
